From patent US11034650B2, “Compounds useful for treating a Mannheimia haemolytica or Histophilus somni infection” (Intervet Inc., priority 2016, dated 2021)
≈ marks a conversion by molar mass, not a printed value.

Tests used:
Format in all cases: cell-based
[1] = test system: Mannheimia haemolytica MH 6357 (M7/2, reference strain, cattle infection strain); assay: MIC, broth-microdilution (CLSI VET01-A4), strain MH 6357; conditions: Mannheimia haemolytica strain MH 6357, broth-microdilution; unit assumed
Protocol: (§1) For example, representative compounds were tested against ***, Mannheimia haemolytica and Pasteurella multocida, using the conventional broth-dilution assay.
(§2) The Minimum inhibitory concentrations (MIC) of compounds according to the invention for a number of veterinary bacterial pathogens were determined by the broth-microdilution method according to CLSI document VET01-A4.
(§3) Microdilution trays containing a doubling dilution series of the test compound were used for the tests. The MIC results were interpreted according to the CLSI documents VET01-S3. The lowest concentration of compound at which no visible growth (i.e. no turbidity) detected by the unaided eye was recorded as the MIC.

[2] = test system: Mannheimia haemolytica MH 6374 (ATCC 33396, reference strain); assay: MIC, broth-microdilution (CLSI VET01-A4), strain MH 6374; conditions: Mannheimia haemolytica strain MH 6374, broth-microdilution; unit assumed
Protocol: as §1, §2, §3

[3] = test system: Mannheimia haemolytica MH 10720 (154, BRD field isolate); assay: MIC, broth-microdilution (CLSI VET01-A4), strain MH 10720; conditions: Mannheimia haemolytica strain MH 10720, broth-microdilution; unit assumed
Protocol: as §1, §2, §3

[4] = test system: Mannheimia haemolytica MH 12587 (1071, BRD field isolate, macrolide-resistance: erm+, E+); assay: MIC, broth-microdilution (CLSI VET01-A4), strain MH 12587; conditions: Mannheimia haemolytica strain MH 12587, broth-microdilution; unit assumed
Protocol: as §1, §2, §3

[5] = test system: Mannheimia haemolytica MH 13065 (XB0446-6003.9, BRD field isolate); assay: MIC, broth-microdilution (CLSI VET01-A4), strain MH 13065; conditions: Mannheimia haemolytica strain MH 13065, broth-microdilution; unit assumed
Protocol: as §1, §2, §3

[6] = test system: Mannheimia haemolytica MH 13093 (XB0472-6014.1, BRD field isolate); assay: MIC, broth-microdilution (CLSI VET01-A4), strain MH 13093; conditions: Mannheimia haemolytica strain MH 13093, broth-microdilution; unit assumed
Protocol: as §1, §2, §3

[7] = test system: Pasteurella multocida PM 6267 (P 2225 (L386), reference strain, mouse infection strain); assay: MIC, broth-microdilution (CLSI VET01-A4), strain PM 6267; conditions: Pasteurella multocida strain PM 6267, broth-microdilution; unit assumed
Protocol: as §1, §2, §3

[8] = test system: Pasteurella multocida PM 10775 (080130003051, BRD field isolate); assay: MIC, broth-microdilution (CLSI VET01-A4), strain PM 10775; conditions: Pasteurella multocida strain PM 10775, broth-microdilution; unit assumed
Protocol: as §1, §2, §3

[9] = test system: Pasteurella multocida PM 12080 (IV102277-0093, BRD field isolate); assay: MIC, broth-microdilution (CLSI VET01-A4), strain PM 12080; conditions: Pasteurella multocida strain PM 12080, broth-microdilution; unit assumed
Protocol: as §1, §2, §3

Structure (SMILES) | MIC MH 6357 [1] [µg/mL] | MIC MH 6374 [2] [µg/mL] | MIC MH 10720 [3] [µg/mL] | MIC MH 12587 [4] [µg/mL] | MIC MH 13065 [5] [µg/mL] | MIC MH 13093 [6] [µg/mL] | MIC PM 6267 [7] [µg/mL] | MIC PM 10775 [8] [µg/mL] | MIC PM 12080 [9] [µg/mL]
O=C(N[C@@H](CO)C(=O)NO)c1ccc(C#Cc2ccc(CN3CCc4ccccc4C3)cc2)cc1 [Compound 83] | 25 (≈ 53.2 µM) | 0.8 (≈ 1.7 µM) | 0.4 (≈ 0.852 µM) | 1.6 (≈ 3.41 µM) | 0.8 (≈ 1.7 µM) | 1.6 (≈ 3.41 µM) | ≤ 0.1 | ≤ 0.1 | 0.8 (≈ 1.7 µM)
COc1cc2c(cc1OC)CN(Cc1ccc(C#Cc3ccc(C(=O)N[C@@H](CO)C(=O)NO)cc3)cc1)CC2 [Compound 84] | 3.1 (≈ 5.85 µM) | 3.1 (≈ 5.85 µM) | 0.8 (≈ 1.51 µM) | 3.1 (≈ 5.85 µM) | 3.1 (≈ 5.85 µM) | 3.1 (≈ 5.85 µM) | ≤ 0.1 | ≤ 0.1 | 0.4 (≈ 0.755 µM)
O=C(N[C@@H](CO)C(=O)NO)c1ccc(C#Cc2ccc(CNCc3ccccc3)cc2)cc1 [Compound 85] | 3.1 (≈ 6.99 µM) | 0.8 (≈ 1.8 µM) | 1.6 (≈ 3.61 µM) | 3.1 (≈ 6.99 µM) | 1.6 (≈ 3.61 µM) | 3.1 (≈ 6.99 µM) | ≤ 0.1 | ≤ 0.1 | 0.8 (≈ 1.8 µM)
CN(Cc1ccccc1)Cc1ccc(C#Cc2ccc(C(=O)N[C@@H](CO)C(=O)NO)cc2)cc1 [Compound 86] | 1.6 (≈ 3.5 µM) | 0.8 (≈ 1.75 µM) | 0.4 (≈ 0.874 µM) | 3.1 (≈ 6.78 µM) | 1.6 (≈ 3.5 µM) | 3.1 (≈ 6.78 µM) | ≤ 0.1 | ≤ 0.1 | 0.8 (≈ 1.75 µM)
O=C(N[C@@H](CO)C(=O)NO)c1ccc(C#Cc2ccc(CNCc3ccc(Cl)cc3)cc2)cc1 [Compound 87] | 3.1 (≈ 6.49 µM) | 0.8 (≈ 1.67 µM) | 1.6 (≈ 3.35 µM) | 6.3 (≈ 13.2 µM) | 3.1 (≈ 6.49 µM) | 3.1 (≈ 6.49 µM) | 0.2 (≈ 0.418 µM) | ≤ 0.1 | 1.6 (≈ 3.35 µM)
COc1ccc(CNCc2ccc(C#Cc3ccc(C(=O)N[C@@H](CO)C(=O)NO)cc3)cc2)cc1 [Compound 88] | 6.3 (≈ 13.3 µM) | 1.6 (≈ 3.38 µM) | 1.6 (≈ 3.38 µM) | 6.3 (≈ 13.3 µM) | 3.1 (≈ 6.55 µM) | 12.5 (≈ 26.4 µM) | 0.2 (≈ 0.422 µM) | ≤ 0.1 | 1.6 (≈ 3.38 µM)
O=C(N[C@@H](CO)C(=O)NO)c1ccc(C#Cc2ccc(CNCc3ccc(C(F)(F)F)cc3)cc2)cc1 [Compound 89] | 6.3 (≈ 12.3 µM) | 3.1 (≈ 6.06 µM) | 1.6 (≈ 3.13 µM) | 12.5 (≈ 24.4 µM) | 6.3 (≈ 12.3 µM) | 6.3 (≈ 12.3 µM) | 0.4 (≈ 0.782 µM) | ≤ 0.1 | 1.6 (≈ 3.13 µM)
O=C(N[C@@H](CO)C(=O)NO)c1ccc(C#Cc2ccc(CNCc3ccncc3)cc2)cc1 [Compound 90] | 3.1 (≈ 6.97 µM) | 1.6 (≈ 3.6 µM) | 1.6 (≈ 3.6 µM) | 3.1 (≈ 6.97 µM) | 1.6 (≈ 3.6 µM) | 1.6 (≈ 3.6 µM) | ≤ 0.1 | ≤ 0.1 | 0.8 (≈ 1.8 µM)
Cc1ccc(CNCc2ccc(C#Cc3ccc(C(=O)N[C@@H](CO)C(=O)NO)cc3)cc2)cc1C [Compound 91] | 6.3 (≈ 13.4 µM) | 3.1 (≈ 6.57 µM) | 1.6 (≈ 3.39 µM) | 12.5 (≈ 26.5 µM) | 6.3 (≈ 13.4 µM) | 12.5 (≈ 26.5 µM) | 0.4 (≈ 0.848 µM) | ≤ 0.1 | 1.6 (≈ 3.39 µM)
CC(C)[C@H](NC(=O)c1ccc(C#Cc2ccc(CNC3CC3)cc2)cc1)C(=O)NO [Compound 92] | 0.8 (≈ 1.97 µM) | ≤ 0.1 | ≤ 0.1 | 0.2 (≈ 0.493 µM) | ≤ 0.1 | 0.2 (≈ 0.493 µM) | ≤ 0.1 | ≤ 0.1 | ≤ 0.1
CC(C)NCc1ccc(C#Cc2ccc(C(=O)N[C@H](C(=O)NO)C(C)C)cc2)cc1 [Compound 93] | 6.3 (≈ 15.5 µM) | 6.3 (≈ 15.5 µM) | 3.1 (≈ 7.61 µM) | 12.5 (≈ 30.7 µM) | 6.3 (≈ 15.5 µM) | 12.5 (≈ 30.7 µM) | ≤ 0.1 | ≤ 0.1 | 1.6 (≈ 3.93 µM)
C=CCNCc1ccc(C#Cc2ccc(C(=O)N[C@H](C(=O)NO)C(C)C)cc2)cc1 [Compound 94] | 12.5 (≈ 30.8 µM) | 0.8 (≈ 1.97 µM) | 0.8 (≈ 1.97 µM) | 1.6 (≈ 3.95 µM) | 0.8 (≈ 1.97 µM) | 1.6 (≈ 3.95 µM) | ≤ 0.1 | ≤ 0.1 | 0.8 (≈ 1.97 µM)
CC(C)[C@H](NC(=O)c1ccc(C#Cc2ccc(CNCC(C)(C)C)cc2)cc1)C(=O)NO [Compound 95] | 1.6 (≈ 3.67 µM) | 3.1 (≈ 7.12 µM) | 0.8 (≈ 1.84 µM) | 6.3 (≈ 14.5 µM) | 3.1 (≈ 7.12 µM) | 3.1 (≈ 7.12 µM) | ≤ 0.1 | ≤ 0.1 | 0.4 (≈ 0.918 µM)
COCCNCc1ccc(C#Cc2ccc(C(=O)N[C@H](C(=O)NO)C(C)C)cc2)cc1 [Compound 96] | 3.1 (≈ 7.32 µM) | 0.8 (≈ 1.89 µM) | 0.8 (≈ 1.89 µM) | 12.5 (≈ 29.5 µM) | 1.6 (≈ 3.78 µM) | 3.1 (≈ 7.32 µM) | 0.2 (≈ 0.472 µM) | ≤ 0.1 | 0.8 (≈ 1.89 µM)
CCN(CC)Cc1ccc(C#Cc2ccc(C(=O)N[C@H](C(=O)NO)C(C)C)cc2)cc1 [Compound 97] | 12.5 (≈ 29.7 µM) | 12.5 (≈ 29.7 µM) | 3.1 (≈ 7.35 µM) | 12.5 (≈ 29.7 µM) | 12.5 (≈ 29.7 µM) | 12.5 (≈ 29.7 µM) | 0.2 (≈ 0.474 µM) | ≤ 0.1 | 0.8 (≈ 1.9 µM)
CC(C)[C@H](NC(=O)c1ccc(C#Cc2ccc(CN3CCOCC3)cc2)cc1)C(=O)NO [Compound 98] | 0.8 (≈ 1.84 µM) | 1.6 (≈ 3.67 µM) | 0.4 (≈ 0.918 µM) | 1.6 (≈ 3.67 µM) | 1.6 (≈ 3.67 µM) | 1.6 (≈ 3.67 µM) | ≤ 0.1 | ≤ 0.1 | ≤ 0.1
CC(C)[C@H](NC(=O)c1ccc(C#Cc2ccc(CN3CCS(=O)(=O)CC3)cc2)cc1)C(=O)NO [Compound 99] | 3.1 (≈ 6.41 µM) | 6.3 (≈ 13 µM) | 0.8 (≈ 1.65 µM) | 12.5 (≈ 25.8 µM) | 6.3 (≈ 13 µM) | 6.3 (≈ 13 µM) | ≤ 0.1 | ≤ 0.1 | 0.2 (≈ 0.414 µM)
CC(C)[C@H](NC(=O)c1ccc(C#Cc2ccc(CN3CCC(c4ccccc4)CC3)cc2)cc1)C(=O)NO [Compound 100] | 3.1 (≈ 6.08 µM) | 6.3 (≈ 12.4 µM) | 0.8 (≈ 1.57 µM) | 12.5 (≈ 24.5 µM) | 3.1 (≈ 6.08 µM) | 6.3 (≈ 12.4 µM) | 0.4 (≈ 0.785 µM) | ≤ 0.1 | 0.8 (≈ 1.57 µM)
CC(C)[C@H](NC(=O)c1ccc(C#Cc2ccc(CN3CCN(c4ccccn4)CC3)cc2)cc1)C(=O)NO [Compound 101] | 3.1 (≈ 6.06 µM) | 3.1 (≈ 6.06 µM) | 0.8 (≈ 1.56 µM) | 12.5 (≈ 24.4 µM) | 3.1 (≈ 6.06 µM) | 3.1 (≈ 6.06 µM) | 0.4 (≈ 0.782 µM) | ≤ 0.1 | 0.8 (≈ 1.56 µM)
CC(C)[C@H](NC(=O)c1ccc(C#Cc2ccc(CN3CCc4ccccc4C3)cc2)cc1)C(=O)NO [Compound 102] | 3.1 (≈ 6.44 µM) | 3.1 (≈ 6.44 µM) | 0.8 (≈ 1.66 µM) | 12.5 (≈ 26 µM) | 3.1 (≈ 6.44 µM) | 6.3 (≈ 13.1 µM) | 0.4 (≈ 0.831 µM) | ≤ 0.1 | 0.8 (≈ 1.66 µM)
CC(C)[C@H](NC(=O)c1ccc(C#Cc2ccc(CNCc3ccccc3)cc2)cc1)C(=O)NO [Compound 104] | 0.4 (≈ 0.878 µM) | 0.4 (≈ 0.878 µM) | ≤ 0.1 | 1.6 (≈ 3.51 µM) | 0.4 (≈ 0.878 µM) | 0.8 (≈ 1.76 µM) | ≤ 0.1 | ≤ 0.1 | 0.4 (≈ 0.878 µM)
CC(C)[C@H](NC(=O)c1ccc(C#Cc2ccc(CN(C)Cc3ccccc3)cc2)cc1)C(=O)NO [Compound 105] | 6.3 (≈ 13.4 µM) | 3.1 (≈ 6.6 µM) | 0.8 (≈ 1.7 µM) | 6.3 (≈ 13.4 µM) | 3.1 (≈ 6.6 µM) | 3.1 (≈ 6.6 µM) | 0.2 (≈ 0.426 µM) | ≤ 0.1 | 0.8 (≈ 1.7 µM)
CC(C)[C@H](NC(=O)c1ccc(C#Cc2ccc(CNCc3ccc(Cl)cc3)cc2)cc1)C(=O)NO [Compound 106] | 0.8 (≈ 1.63 µM) | 0.8 (≈ 1.63 µM) | 0.2 (≈ 0.408 µM) | 1.6 (≈ 3.27 µM) | 0.8 (≈ 1.63 µM) | 1.6 (≈ 3.27 µM) | 0.2 (≈ 0.408 µM) | ≤ 0.1 | 0.8 (≈ 1.63 µM)
